Structures are written as SMILES.

Data on 37 molecules can be found in patent US20250195475A1, “CDK2 INHIBITOR AND PREPARATION METHOD AND USE THEREOF” (INVENTISBIO CO., LTD., priority 2022, published 2025).

What all share (assay type): biochemical
In experiment [1] the target is CDK4/CyclinD1 (Homo sapiens (Human), UniProt P11802). Kind of experiment: CDK4 kinase assay (TR-FRET). The following applies: CDK4/CyclinD1 0.50 nM, ATP 225 μM. The protocol: (§1) The purpose of these assays is to evaluate the inhibition of small molecule inhibitors by using TR-FRET assay.
(§2) Compound Preparation. Dissslove the compounds into DMSO solution to make 10 mM DMSO stock. Serially dilute the stock solution from highest concentration down to lowest in DMSO to make the compound stock plate (100× stock plates). To make 5× compound intermediate plate, add 38 μL of assay buffer (50 mM HEPES, pH 7.5, 0.05 mg/mL BSA, 10 mM MgCl2, 1 mM EGTA, 0.01% Tween-20, 2 mM DTT) into each well of the V-bottom plate; then transfer 2 μL of the stock compound solution of each concentration from the compound stock plate (100× stock), and mix well.
(§3) Enzyme reaction. Transfer 2 μL compound from 5× intermediate plate into assay plate, then add 4 μL/well 2.5× Enzyme mix to assay plate, incubation for 10 min at room temperature. For positive control wells, add 4 μL/well assay buffer instead of Enzyme mix. Then add 4 μL/well 2.5× Substrate mix to assay plate, and incubation at 25° C. for 30 min at room temperature. After reaction, 10 μL 2× Detection mix (final 15 mM EDTA, 1× LANCE Detection Buffer, 0.5 nM Detection antibody) was added and incubated for 1 h prior to detection with excitation and emission at 320 and 665 nm (Tecan Spark® TR-FRET mode Tecan).
(§4) Inhibition rate (IR) of the tested compounds was determined by the following formula: IR (%)=(average High control−compound well)/(average High control−average Low control)*100%. Fit the compound IC50 from non-linear regression equation: Y=Bottom+(Top−Bottom)/(1+10^((Log IC50−X)*HillSlope)). X: Log of cpd concentration; Y: Inhibition rate (TR); Top and Bottom: Plateaus in same units as Y, log IC50: same log units as X; HillSlope: Slope factor or Hill slope.
On the technique in general: In TR-FRET formats the signal depends on donor and acceptor labels being close together.

The target in experiment [2] is CDK1/CyclinB1 (Homo sapiens (Human), UniProt P06493). Kind of experiment: CDK1 kinase assay (TR-FRET). The following applies: CDK1/CyclinB 7.5 nM, ATP 17 μM. The protocol: as §1, §2, §3, §4
In experiment [3] the target is CDK2/CyclinE1 (Homo sapiens (Human), UniProt P24941). Kind of experiment: CDK2 kinase assay (TR-FRET). The following applies: CDK2/CyclinE1 0.5 nM, ATP 50 μM. The method, boiled down: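 Compounds were preincubated 10 min at room temperature with enzyme in 50 mM HEPES pH 7.5, 10 mM MgCl2, 1 mM EGTA, 2 mM DTT, 0.01% Tween-20, BSA. Substrate reaction ran 30 min at 25 °C, was stopped with EDTA and read by LANCE TR-FRET (ex 320/em 665 nm) after 1 h. IC50 came from a four-parameter fit of % inhibition.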

Experiment [4] addresses CDK6/CyclinD3 (Homo sapiens (Human), UniProt Q00534). Briefly: CDK6 kinase assay (TR-FRET). The following applies: CDK6/CyclinD3 0.50 nM, ATP 140 μM. As for the experimental part: as §1, §2, §3, §4
Experiment [5] has as its target GSK3β (Homo sapiens (Human), UniProt P49841). Kind of experiment: GSK3β kinase assay (TR-FRET). The following applies: GSK3β 1.0 nM, ATP 8.0 μM. As for the experimental part:
as §1, §2, §3, §4

For experiment [6], the target named is CDK9/CyclinT1 (Homo sapiens (Human), UniProt P50750). Briefly: CDK9 kinase assay (TR-FRET). The following applies: CDK9/CyclinT1 1.0 nM, ATP 3.5 μM. As for the experimental part:
as §1, §2, §3, §4

Chain of GSK3β (P49841 whole entry): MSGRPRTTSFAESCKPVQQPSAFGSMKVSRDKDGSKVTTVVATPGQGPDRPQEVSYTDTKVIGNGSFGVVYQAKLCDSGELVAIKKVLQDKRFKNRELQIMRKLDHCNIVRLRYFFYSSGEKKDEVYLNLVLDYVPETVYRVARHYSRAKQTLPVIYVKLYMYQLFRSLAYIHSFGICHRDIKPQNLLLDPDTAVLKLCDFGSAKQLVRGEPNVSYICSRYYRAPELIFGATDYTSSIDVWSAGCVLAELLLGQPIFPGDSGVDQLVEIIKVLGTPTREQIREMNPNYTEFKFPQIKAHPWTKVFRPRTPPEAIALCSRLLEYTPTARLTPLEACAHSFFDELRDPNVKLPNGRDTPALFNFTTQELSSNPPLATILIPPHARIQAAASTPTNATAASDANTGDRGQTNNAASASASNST
Chain of CDK4/CyclinD1 (P11802 whole entry): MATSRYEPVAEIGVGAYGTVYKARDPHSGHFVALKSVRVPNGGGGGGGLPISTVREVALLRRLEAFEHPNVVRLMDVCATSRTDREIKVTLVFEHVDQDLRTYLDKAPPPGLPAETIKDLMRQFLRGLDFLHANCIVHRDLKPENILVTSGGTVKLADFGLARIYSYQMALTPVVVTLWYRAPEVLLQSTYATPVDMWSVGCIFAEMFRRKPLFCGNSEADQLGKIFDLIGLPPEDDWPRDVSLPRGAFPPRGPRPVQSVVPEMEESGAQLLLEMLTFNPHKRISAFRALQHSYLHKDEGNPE
Chain of CDK4/CyclinD1 (P24385 whole entry partner): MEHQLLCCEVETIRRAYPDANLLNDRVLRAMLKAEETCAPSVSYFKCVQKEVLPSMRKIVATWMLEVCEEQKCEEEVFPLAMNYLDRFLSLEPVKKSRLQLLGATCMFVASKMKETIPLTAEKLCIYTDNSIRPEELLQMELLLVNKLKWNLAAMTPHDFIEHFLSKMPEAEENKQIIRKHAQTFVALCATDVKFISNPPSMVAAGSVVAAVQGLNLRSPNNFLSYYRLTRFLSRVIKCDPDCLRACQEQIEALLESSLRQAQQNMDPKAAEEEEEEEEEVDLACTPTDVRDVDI
Chain of CDK6/CyclinD3 (Q00534 whole entry): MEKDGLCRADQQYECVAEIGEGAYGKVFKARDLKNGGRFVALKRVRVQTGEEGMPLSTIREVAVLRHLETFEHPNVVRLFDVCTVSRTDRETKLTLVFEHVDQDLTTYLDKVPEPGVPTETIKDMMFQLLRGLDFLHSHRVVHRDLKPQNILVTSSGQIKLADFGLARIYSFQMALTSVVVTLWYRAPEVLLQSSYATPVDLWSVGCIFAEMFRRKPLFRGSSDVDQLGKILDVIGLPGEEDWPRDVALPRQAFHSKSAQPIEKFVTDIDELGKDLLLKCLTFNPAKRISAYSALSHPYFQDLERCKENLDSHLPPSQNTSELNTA
Chain of CDK6/CyclinD3 (P30281 whole entry partner): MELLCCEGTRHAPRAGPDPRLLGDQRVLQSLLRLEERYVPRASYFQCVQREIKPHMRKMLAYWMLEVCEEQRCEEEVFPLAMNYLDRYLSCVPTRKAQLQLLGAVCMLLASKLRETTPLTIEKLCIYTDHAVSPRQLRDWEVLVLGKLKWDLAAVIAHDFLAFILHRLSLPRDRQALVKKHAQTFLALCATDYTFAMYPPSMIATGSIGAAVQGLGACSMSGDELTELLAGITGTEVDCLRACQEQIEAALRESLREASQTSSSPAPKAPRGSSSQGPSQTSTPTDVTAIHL
Chain of CDK9/CyclinT1 (P50750 whole entry): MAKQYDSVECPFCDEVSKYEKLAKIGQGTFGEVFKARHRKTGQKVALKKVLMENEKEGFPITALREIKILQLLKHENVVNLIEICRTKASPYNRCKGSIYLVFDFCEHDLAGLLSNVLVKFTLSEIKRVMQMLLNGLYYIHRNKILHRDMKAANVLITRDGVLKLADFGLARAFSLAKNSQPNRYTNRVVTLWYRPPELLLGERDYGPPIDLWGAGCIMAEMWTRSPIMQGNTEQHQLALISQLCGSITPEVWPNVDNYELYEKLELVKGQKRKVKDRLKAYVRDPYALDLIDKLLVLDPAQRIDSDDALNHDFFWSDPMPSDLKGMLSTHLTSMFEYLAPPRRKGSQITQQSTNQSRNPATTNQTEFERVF
Chain of CDK9/CyclinT1 (O60563 whole entry partner): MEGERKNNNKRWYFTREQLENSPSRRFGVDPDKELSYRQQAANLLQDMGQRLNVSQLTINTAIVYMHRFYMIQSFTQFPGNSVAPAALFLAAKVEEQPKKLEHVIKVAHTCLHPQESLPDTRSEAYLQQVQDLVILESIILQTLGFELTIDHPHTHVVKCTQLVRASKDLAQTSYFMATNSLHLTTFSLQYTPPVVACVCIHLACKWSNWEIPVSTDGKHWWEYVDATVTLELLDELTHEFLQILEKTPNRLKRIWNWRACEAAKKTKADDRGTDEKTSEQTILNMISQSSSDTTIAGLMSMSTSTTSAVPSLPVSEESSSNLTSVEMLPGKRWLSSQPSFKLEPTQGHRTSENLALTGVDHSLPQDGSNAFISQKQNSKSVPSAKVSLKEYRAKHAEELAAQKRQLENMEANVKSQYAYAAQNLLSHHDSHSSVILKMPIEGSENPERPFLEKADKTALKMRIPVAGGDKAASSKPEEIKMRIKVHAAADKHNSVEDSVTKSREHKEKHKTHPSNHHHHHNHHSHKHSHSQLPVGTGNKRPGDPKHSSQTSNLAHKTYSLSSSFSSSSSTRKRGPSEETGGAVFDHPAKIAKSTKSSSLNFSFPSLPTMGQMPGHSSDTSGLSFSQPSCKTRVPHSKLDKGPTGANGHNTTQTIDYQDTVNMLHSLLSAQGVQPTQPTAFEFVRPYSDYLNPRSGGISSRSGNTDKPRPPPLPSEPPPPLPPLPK
Chain of CDK1/CyclinB1 (P06493 whole entry): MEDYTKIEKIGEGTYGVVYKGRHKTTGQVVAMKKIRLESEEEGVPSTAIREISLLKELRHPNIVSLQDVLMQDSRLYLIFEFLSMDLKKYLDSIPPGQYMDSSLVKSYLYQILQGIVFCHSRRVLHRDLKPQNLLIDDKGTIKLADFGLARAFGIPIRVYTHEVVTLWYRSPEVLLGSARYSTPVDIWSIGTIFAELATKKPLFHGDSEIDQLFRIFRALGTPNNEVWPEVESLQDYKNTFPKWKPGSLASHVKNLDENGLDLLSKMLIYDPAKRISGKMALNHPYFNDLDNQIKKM
Chain of CDK1/CyclinB1 (P14635 whole entry partner): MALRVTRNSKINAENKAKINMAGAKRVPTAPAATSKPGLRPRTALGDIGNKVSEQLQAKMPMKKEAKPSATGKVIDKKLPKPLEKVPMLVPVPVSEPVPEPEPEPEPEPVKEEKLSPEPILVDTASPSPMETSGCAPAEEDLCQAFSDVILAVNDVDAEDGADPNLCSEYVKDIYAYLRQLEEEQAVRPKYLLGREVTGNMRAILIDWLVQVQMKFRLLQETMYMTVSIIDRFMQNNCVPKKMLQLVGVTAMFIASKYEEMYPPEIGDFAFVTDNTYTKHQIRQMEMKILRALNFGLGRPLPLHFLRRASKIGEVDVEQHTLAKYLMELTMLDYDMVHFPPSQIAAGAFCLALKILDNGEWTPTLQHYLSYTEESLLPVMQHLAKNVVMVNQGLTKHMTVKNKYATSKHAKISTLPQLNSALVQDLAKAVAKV

As a reminder, the IC50 is the midpoint of a concentration-inhibition curve. Higher therefore signals weaker potency in that assay. Regarding `CC[C@H](C)NC(=O)O[C@@H]1CC[C@H](c2cc(NC(=O)[C@H]3C[C@@H]3COC)n[nH]2)C1` [Compound 33], the half-maximal inhibitory concentration (IC50) stood at 652 nM in experiment [1], 118 nM in experiment [2], 1.9 nM in experiment [3] and 574 nM in experiment [4]. As for `CC(C)NC(=O)OC1COC(c2cc(NC(=O)Cc3cc(F)cc(F)c3)n[nH]2)C1` (centres unmarked) [Compound 24], the IC50 in experiment [2] was 102 nM; in experiment [3] it was 1.8 nM. On the same counts, the results for `Cn1nccc1C(=O)Nc1cc([C@H]2C[C@@H](OC(=O)NC3CCC3)CO2)[nH]n1` [Compound 122] are 89.4 nM and 1.9 nM.

As for `CC1(NC(=O)OC2COC(c3cc(NC(=O)Cc4cc(F)cc(F)c4)n[nH]3)C2)CCOC1` (centres unmarked) [Compound 52], the IC50 was 1000 nM in experiment [5]; 1000 nM in experiment [1]; 111 nM in experiment [2]; 1.6 nM in experiment [3]; 1000 nM in experiment [4]. For `CCC(C)(C)NC(=O)O[C@@H]1CO[C@H](c2cc(NC(=O)c3ccnn3C)n[nH]2)C1` [Compound 191], the IC50 in experiment [6] worked out at 131 nM; in experiment [2], 101 nM; in experiment [3], 1.2 nM.

Take `O=C(NC12CC(F)(C1)C2)O[C@@H]1CC[C@H](c2cc(NC(=O)[C@@H]3CCN(S(=O)(=O)C4CC4)C3)n[nH]2)C1` [Compound 181]: the 50% inhibitory concentration (IC50) in experiment [2] is 34.4 nM; in experiment [3], 0.8 nM.

`CC(C)NC(=O)O[C@@H]1CC[C@H](c2cc(NC(=O)C34CC(C(=O)NO)(C3)C4)n[nH]2)C1` [Compound 126]: the IC50 turned out to be 142 nM in experiment [2] and 2.5 nM in experiment [3]. In the case of `CC(C)NC(=O)O[C@@H]1CC[C@H](c2cc(NC(=O)[C@@H]3CCN(S(C)(=O)=O)C3)n[nH]2)C1` [Compound 25], the IC50 amounted to 510 nM in experiment [1], 54.9 nM in experiment [2], 1.2 nM in experiment [3] and 899 nM in experiment [4]. On to `CC1(NC(=O)OC2COC(c3cc(NC(=O)Cc4cc(F)cc(F)c4)n[nH]3)C2)CCOC1` (centres unmarked) [Compound 53], for which the values for the IC50 in experiment [2] and in experiment [3] were 134 nM and 2.1 nM, respectively. As to `Cn1nccc1C(=O)Nc1cc([C@H]2CC[C@@H](OC(=O)NC3COC4(CCC4)C3)C2)[nH]n1` (single isomer, unassigned) [Compound 44], the half-maximal inhibitory concentration (IC50) in experiment [2] is 255 nM; in experiment [3], 3.2 nM. Take `CC(C)NC(=O)O[C@@H]1CC[C@H](C2=CC(NC(=O)[C@H]3C[C@@H]3[C@H](C)O)=NC2)C1` [Compound 136]: the 50% inhibitory concentration (IC50) came to 64.6 nM in experiment [2] and 1.2 nM in experiment [3]. On the same counts, the results for `Cn1nccc1C(=O)Nc1cc([C@@H]2C[C@H](OC(=O)NC(C)(C)C)CO2)[nH]n1` [Compound 102] are 133 nM and 2.5 nM. On the same counts, the results for `C#CC1(NC(=O)O[C@H]2CO[C@@H](c3cc(NC(=O)c4ccnn4C)n[nH]3)C2)CCC1` [Compound 189] are 58.6 nM and 1 nM. On to `Cn1nccc1C(=O)Nc1cc([C@@H]2C[C@H](OC(=O)NC34CC(C3)C4)CO2)[nH]n1` [Compound 97], for which the IC50 in experiment [5] was determined as 381 nM; in experiment [2] it was 72.6 nM; in experiment [3] it was 1.1 nM. On the same counts, the results for `CCS(=O)(=O)N1CC[C@@H](C(=O)Nc2cc([C@H]3CC[C@@H](OC(=O)NC(C)C)C3)[nH]n2)C1` [Compound 49] are 395 nM, 132 nM and 2.2 nM. For `CC(C)NC(=O)O[C@@H]1CC[C@H](c2cc(NC(=O)C3CC(C)N(S(C)(=O)=O)C3)n[nH]2)C1` (single isomer, unassigned) [Compound 143], the IC50 stood at 1000 nM in experiment [6], 60.9 nM in experiment [2] and 1.2 nM in experiment [3]. Consider `C#C[C@H]1C[C@@H]1C(=O)Nc1cc([C@H]2CC[C@@H](OC(=O)NC3(C)COC3)C2)[nH]n1` [Compound 180], for which the 50% inhibitory concentration (IC50) in experiment [6] stood at 210 nM; in experiment [2], 69.4 nM; in experiment [3], 1.1 nM. With `COCc1cc(C(=O)Nc2cc([C@H]3CC[C@@H](OC(=O)N[C@H]4C[C@]5(CCOC5)C4)C3)[nH]n2)n(C)n1` [Compound 202], in experiment [3], the IC50 was 3.9 nM. On the same count and under the same terms, the same measure for `CC(C)NC(=O)O[C@@H]1CC[C@H](c2cc(NC(=O)[C@H]3CCCN(S(C)(=O)=O)C3)n[nH]2)C1` [Compound 76]: 22.7 nM; for `CC(C)NC(=O)O[C@@H]1CC[C@H](c2cc(NC(=O)C3CC34CCOC4)n[nH]2)C1` (some centres unmarked) [Compound 174]: 61.1 nM; for `CC(C)NC(=O)O[C@@H]1CC[C@H](c2cc(NC(=O)C3CCN(S(C)(=O)=O)CC3)n[nH]2)C1` [Compound 8]: 11.3 nM. In experiment [3], `CC(C)NC(=O)O[C@@H]1CC[C@H](c2cc(NC(=O)C3CC3OCC(F)F)n[nH]2)C1` (some centres unmarked) [Compound 147] came in with a 50% inhibitory concentration (IC50) of 4.8 nM.

The molecule `CC(C)NC(=O)O[C@@H]1CC[C@H](c2cc(NC(=O)[C@@H]3CCCN(S(C)(=O)=O)C3)n[nH]2)C1` [Compound 71] gave a half-maximal inhibitory concentration (IC50) in experiment [3] of 8.7 nM. Turning to `CC[C@H](C)NC(=O)O[C@@H]1CO[C@H](c2cc(NC(=O)c3ccnn3C)n[nH]2)C1` [Compound 100], the IC50 was 706 nM in experiment [5], 74.8 nM in experiment [2] and 1.5 nM in experiment [3].

In experiment [3], `Cn1nccc1C(=O)Nc1cc([C@H]2C[C@@H](OC(=O)NC34CC(F)(C3)C4)CO2)[nH]n1` [Compound 159] yielded a half-maximal inhibitory concentration (IC50) of 1.6 nM. Still for that read-out and setting: next, `CC(C)NC(=O)O[C@@H]1CO[C@H](c2cc(NC(=O)[C@@H]3CCN(S(=O)(=O)C4CC4)C3)n[nH]2)C1` [Compound 132]: 7.2 nM; `CC(C)NC(=O)O[C@@H]1CO[C@H](c2cc(NC(=O)c3cc(C(F)F)nn3C)n[nH]2)C1` [Compound 112]: 13.4 nM. The same measure, in the same setting: the same measure for `C#C[C@H]1C[C@@H]1C(=O)Nc1cc([C@@H]2CC[C@H](OC(=O)NC(C)C)C2)[nH]n1` [Compound 145]: 0.9 nM; for `CC(C)NC(=O)OC1COC(c2cc(NC(=O)c3ccccc3)n[nH]2)C1` (centres unmarked) [Compound 66]: 14.4 nM; for `C#C[C@H]1C[C@@H]1C(=O)Nc1cc([C@@H]2C[C@H](OC(=O)NC(C)C)CO2)[nH]n1` [Compound 165]: 4.7 nM.

`CCc1cc(C(=O)Nc2cc([C@@H]3C[C@H](OC(=O)NC(C)C)CO3)[nH]n2)n(C)n1` [Compound 78] returned a half-maximal inhibitory concentration (IC50) in experiment [3] of 18.7 nM. In the case of `CC(C)NC(=O)O[C@@H]1CC[C@H](c2cc(NC(=O)[C@H]3C[C@@H]3CC#N)n[nH]2)C1` [Compound 56], in experiment [3], the half-inhibitory concentration (IC50) was found to be 4 nM. As for `C#C[C@H]1C[C@@H]1C(=O)Nc1cc([C@H]2C[C@@H](OC(=O)NC3(C)CCC3)CO2)[nH]n1` [Compound 158], the IC50 in experiment [3] is 1.1 nM. Still for that read-out and setting: next, `Cc1cc(CC(=O)Nc2cc([C@H]3CC[C@@H](OC(=O)NC4COC5(CCC5)C4)C3)[nH]n2)on1` (single isomer, unassigned) [Compound 38]: 22.4 nM; `CO[C@H]1C[C@H](C(=O)Nc2cc([C@H]3CC[C@@H](OC(=O)NC(C)C)C3)[nH]n2)C1` [Compound 68]: 8 nM; `CS(=O)(=O)N1CC[C@@H](C(=O)Nc2cc([C@H]3CC[C@@H](OC(=O)NC4(C(F)F)CC4)C3)[nH]n2)C1` [Compound 124]: 1.2 nM. In turn, `Cc1c(C2CC2C(=O)Nc2cc([C@@H]3CC[C@H](OC(=O)NC(C)C)C3)[nH]n2)cnn1C` (single isomer, unassigned) [Compound 208] yielded a half-inhibitory concentration (IC50) in experiment [3] of 0.8 nM.
